Where only a bound is given, the exact number is not on record here.

T1 sequence (Q9NQS5 whole entry): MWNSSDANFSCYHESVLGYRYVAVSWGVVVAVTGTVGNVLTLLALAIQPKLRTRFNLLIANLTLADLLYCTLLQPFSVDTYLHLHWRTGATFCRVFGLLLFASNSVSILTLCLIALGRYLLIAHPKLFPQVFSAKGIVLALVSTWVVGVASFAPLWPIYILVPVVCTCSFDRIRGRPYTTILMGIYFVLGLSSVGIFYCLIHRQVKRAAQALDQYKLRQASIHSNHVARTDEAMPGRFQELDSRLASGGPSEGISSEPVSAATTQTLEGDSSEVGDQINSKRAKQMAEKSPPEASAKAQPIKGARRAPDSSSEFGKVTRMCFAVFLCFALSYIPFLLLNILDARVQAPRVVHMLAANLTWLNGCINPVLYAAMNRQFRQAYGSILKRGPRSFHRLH

This test addresses T1, human GPR84 receptor (Homo sapiens, UniProt Q9NQS5).
T1 construct: frozen aliquots prepared by acCELLerate; host or cells: CHO-K1
Briefly: cAMP HTRF assay for identification of cellular GPR84 antagonists. It is filed as cell-based. Conditions: CHO-K1 cells stably expressing human GPR84; Forskolin plus agonist 6-OAU; cAMP HTRF readout; average or median values. The text has this:
cAMP HTRF® Assay for Identification of Cellular GPR84 Antagonists
By using a Homogenous Time-Resolved Fluorescence (HTRF®) based assay (#62AM5PEJ, Cisbio, Condolet, France) the inhibition of the Gi-coupled GPR84 receptor can be detected. CHO-K1 cells stably expressing human GPR84 receptor (purchased from DiscoveRx, now Eurofins) were used and treated with Forskolin (F6886, Sigma, Germany) to stimulate membrane adenylyl cyclases and thereby unspecific cAMP formation. Activation of the Gi-coupled GPR84 by a natural or small molecule agonist (e.g. 6-n-octyl aminouracile, inhouse) results in inhibition of cellular cAMP formation which can be released again by antagonists to this receptor. Detection and quantification of cellular cAMP levels in this HTRF assay is achieved by interaction between a fluorescent cAMP tracer (cAMP-d2) and an Eu-cryptate labelled anti-cAMP antibody. Following excitation at 337 nm this pairing allows for the generation of a fluorescence resonance energy transfer (FRET) between the partners and results in FRET induced emissions at 665 nm and 620 nm, the latter representing background signal by Eu-cryptate labelled anti-cAMP antibody. Maximal signal is obtained in the absence of any cellular cAMP (no competition for the binding of the tracer to the antibody). Given the combination of the Gi coupling properties of GPR84 and the competitive nature of the detection system agonist treatment should result in an increase in the HTRF signal due to lowered cAMP levels. Any signal decrease in the presence of Forskolin, agonist and compound are indicative of antagonist mediated abrogation of GPR84 signalling.
For the assay, frozen aliquots of CHO-K1 cells expressing hGPR84 (prepared by acCELLerate, Hamburg, Germany) were thawed and a cell suspension (1.67E+06 cells/mL) in assay media (Ham's F12 Nutrient Mix, Thermo Fisher Scientific, Waltham, USA; 5% fetal calf serum, Biomol, Hamburg, Germany) containing cAMP-d2 (dilution 1:20, supplied with the kit #62AM5PEJ, Cisbio, Condolet, France) was prepared. After recovery of cells for 20 minutes at 37° C., 3 μL/well cell suspension including cAMP-d2 were added to a pre-dispensed assay plate (Greiner Bio-One, Kremsmuenster, Austria) containing 50 nl/well test compound in 100% DMSO or 100% DMSO as control. This was followed by a 30 minute incubation step at room temperature. The stimulation time was started by addition of 2 μL/well assay media containing 2.5×EC80 agonist 6-OAU and 2.5×EC90 Forskolin (negative control: 2.5×EC90 Forskolin in assay media) and was continued for 30 minutes at room temperature. The reaction was stopped by addition of 3 μL/well lysis buffer containing cAMP Eu-Cryptate antibody (dilution 1:20) (both supplied with the kit #62AM5PEJ, Cisbio, Condolet, France). To enable complete lysis, plates were incubated for 60 minutes at room temperature before measurement in an HTRF reader, e.g. a PHERAstar (BMG Labtech, Ortenberg, Germany).
From the fluorescence emissions at 665 nm (FRET) and at 620 nm (background signal of Eu-cryptate) the ratio (emission at 665 nm divided by emission at 620 nm×10000) was calculated and the data were normalized (reaction without test compound, only 100% DMSO=0% inhibition; all other assay components except agonist=100% inhibition). For dose response testing on the same microtiter plate, compounds were tested at 11 different concentrations in the range of 20 μM to 0.07 nM (20 μM, 5.7 μM, 1.6 μM, 0.47 μM, 0.13 μM, 38 nM, 11 nM, 3.1 nM, 0.89 nM, 0.25 and 0.07 nM; dilution series prepared before the assay at the level of the 100-fold conc. stock solutions by serial 1:3.5 dilutions in 100% DMSO) in duplicate values for each concentration. IC50 values were calculated by 4-parameter fitting using a commercial software package (Genedata Screener, Basel, Switzerland).
Examples were tested in selected biological assays one or more times. […]
A general note: In TR-FRET formats the signal depends on donor and acceptor labels being close together.
Take `Cc1c(C(=O)NCc2cccn2C)oc2c1-c1nn(Cc3ccc(Cl)cc3)cc1CC2` [Example 44, 2-[(4-chlorophenyl)methyl]-8-methyl-N-[(1-methyl-1H-pyrrol-2-yl)methyl]-4,5-dihydro-2H-furo[2,3-g]indazole-7-carboxamide]: the half-inhibitory concentration (IC50) (commonly the concentration needed to halve the response being measured) was 0.89 µM.

For `Cc1c(C(=O)NCC(F)F)oc2c1-c1nn(Cc3ccc(Cl)cc3)cc1CC2` [Example 65, 2-[(4-chlorophenyl)methyl]-N-(2,2-difluoroethyl)-8-methyl-4,5-dihydro-2H-furo[2,3-g]indazole-7-carboxamide], the IC50 amounted to 7.45 µM.

On to `CCNC(=O)CNC(=O)c1oc2c(c1C)-c1nn(Cc3ccc(Cl)cc3)cc1CC2` [Example 30, 2-[(4-chlorophenyl)methyl]-N-[2-(ethylamino)-2-oxoethyl]-8-methyl-4,5-dihydro-2H-furo[2,3-g]indazole-7-carboxamide], for which the 50% inhibitory concentration (IC50) worked out at 0.5 µM.

For the compound `Cc1c(C(=O)NCc2ccc(C(N)=O)cc2)oc2c1-c1nn(Cc3ccc(Cl)cc3)cc1CC2` [Example 42, N-[(4-carbamoylphenyl)methyl]-2-[(4-chlorophenyl)methyl]-8-methyl-4,5-dihydro-2H-furo[2,3-g]indazole-7-carboxamide], the half-maximal inhibitory concentration (IC50) amounted to 0.72 µM.

Take `Cc1ccc(CNC(=O)c2oc3c(c2C)-c2nn(Cc4ccccc4Cl)cc2CC3)cc1` [Example 10, 2-[(2-chlorophenyl)methyl]-8-methyl-N-[(4-methylphenyl)methyl]-4,5-dihydro-2H-furo[2,3-g]indazole-7-carboxamide]: the half-maximal inhibitory concentration (IC50) came out at 0.042 µM.

On to `Cc1c(C(=O)NCCC#N)oc2c1-c1nn(Cc3ccc(Cl)cc3)cc1CC2` [Example 70, 2-[(4-chlorophenyl)methyl]-N-(2-cyanoethyl)-8-methyl-4,5-dihydro-2H-furo[2,3-g]indazole-7-carboxamide], for which the IC50 worked out at 9.5 µM.

Consider `Cc1c(C(=O)NCCN2CCC2)oc2c1-c1nn(Cc3ccc(Cl)cc3)cc1CC2` [Example 26, N-[2-(azetidin-1-yl)ethyl]-2-[(4-chlorophenyl)methyl]-8-methyl-4,5-dihydro-2H-furo[2,3-g]indazole-7-carboxamide], for which the IC50 was 1.63 µM.

As to `Cc1c(C(=O)NCC[S+](C)[O-])oc2c1-c1nn(Cc3ccc(Cl)cc3)cc1CC2` (stereo not shown) [Example 63, 2-[(4-chlorophenyl)methyl]-NV-[2-(methanesulfinyl)ethyl]-8-methyl-4,5-dihydro-2H-furo[2,3-g]indazole-7-carboxamide], the IC50 worked out at 6.15 µM.

In the case of `Cc1c(C(=O)N2CCC(CO)CC2)oc2c1-c1nn(Cc3ccc(Cl)cc3)cc1CC2` [Example 79, {2-[(4-chlorophenyl)methyl]-8-methyl-4,5-dihydro-2H-furo[2,3-g]indazol-7-yl}[4-(hydroxymethyl)piperidin-1-yl]methanone], the IC50 came out at 15.5 µM.

Turning to `Cc1c(C(=O)NCc2ccno2)oc2c1-c1nn(Cc3ccc(Cl)cc3)cc1CC2` [Example 28, 2-[(4-chlorophenyl)methyl]-8-methyl-N-[(1,2-oxazol-5-yl)methyl]-4,5-dihydro-2H-furo[2,3-g]indazole-7-carboxamide], the IC50 was 1.01 µM.

For the compound `Cc1c(C(=O)NCc2ccnn2C)oc2c1-c1nn(Cc3ccc(Cl)cc3)cc1CC2` [Example 46, 2-[(4-chlorophenyl)methyl]-8-methyl-N-[(1-methyl-1H-pyrazol-5-yl)methyl]-4,5-dihydro-2H-furo[2,3-g]indazole-7-carboxamide], the IC50 came to 1.65 µM.

For `Cc1c(C(=O)NCc2ccncc2)oc2c1-c1nn(Cc3ccc(Cl)cc3)cc1CC2` [Example 45, 2-[(4-chlorophenyl)methyl]-8-methyl-N-[(pyridin-4-yl)methyl]-4,5-dihydro-2H-furo[2,3-g]indazole-7-carboxamide], the IC50 came out at 1.43 µM.

Regarding `Cc1c(C(=O)NCC(=O)N2CCOCC2)oc2c1-c1nn(Cc3ccc(Cl)cc3)cc1CC2` [Example 35, 2-[(4-chlorophenyl)methyl]-8-methyl-N-[2-(morpholin-4-yl)-2-oxoethyl]-4,5-dihydro-2H-furo[2,3-g]indazole-7-carboxamide], the IC50 came out at 3 µM.

In the case of `Cc1c(C(=O)N(C)CCO)oc2c1-c1nn(Cc3ccc(Cl)cc3)cc1CC2` [Example 85, 2-[(4-chlorophenyl)methyl]-N-(2-hydroxyethyl)-N,8-dimethyl-4,5-dihydro-2H-furo[2,3-g]indazole-7-carboxamide], the IC50 came out at 17 µM.

As to `Cc1c(C(=O)NCC(=O)N2CCCC2)oc2c1-c1nn(Cc3ccc(Cl)cc3)cc1CC2` [Example 34, 2-[(4-chlorophenyl)methyl]-8-methyl-N-[2-oxo-2-(pyrrolidin-1-yl)ethyl]-4,5-dihydro-2H-furo[2,3-g]indazole-7-carboxamide], the half-maximal inhibitory concentration (IC50) worked out at 1.14 µM.

As for `Cc1c(C(=O)N(C)Cc2ccco2)oc2c1-c1nn(Cc3ccc(Cl)cc3)cc1CC2` [Example 72, 2-[(4-chlorophenyl)methyl]-N-[(furan-2-yl)methyl]-N,8-dimethyl-4,5-dihydro-2H-furo[2,3-g]indazole-7-carboxamide], the 50% inhibitory concentration (IC50) worked out at 9.96 µM.

Consider `Cc1c(C(=O)NCC2CCCO2)oc2c1-c1nn(Cc3cccc(Cl)c3)cc1CC2` (single isomer, unassigned) [Example 15-1], for which the half-inhibitory concentration (IC50) was determined as 0.088 µM.

`Cc1c(C(=O)N2CCC(O)CC2)oc2c1-c1nn(Cc3ccc(Cl)cc3)cc1CC2` [Example 71, {2-[(4-chlorophenyl)methyl]-8-methyl-4,5-dihydro-2H-furo[2,3-g]indazol-7-yl}(4-hydroxypiperidin-1-yl)methanone]: the concentration for half-maximal inhibition (IC50) was determined as 9.57 µM.

In the case of `Cc1c(C(=O)NCCN2CCN(C)CC2)oc2c1-c1nn(Cc3ccc(F)cc3Cl)cc1CC2` [Example 93], the half-inhibitory concentration (IC50) worked out at 0.82 µM.

As for `Cc1c(C(=O)N(C)Cc2ccn(C)n2)oc2c1-c1nn(Cc3ccc(Cl)cc3)cc1CC2` [Example 73, 2-[(4-chlorophenyl)methyl]-N,8-dimethyl-N-[(1-methyl-1H-pyrazol-3-yl)methyl]-4,5-dihydro-2H-furo[2,3-g]indazole-7-carboxamide], the IC50 is 10.3 µM.

For the compound `Cc1c(C(=O)N2CCC[C@H]2C(N)=O)oc2c1-c1nn(Cc3ccc(Cl)cc3)cc1CC2` [Example 91, 1-{2-[(4-chlorophenyl)methyl]-8-methyl-4,5-dihydro-2H-furo[2,3-g]indazole-7-carbonyl}-L-prolinamide], the IC50 was at least 20 µM.

Regarding `Cc1c(C(=O)N2CC(Cc3ccccc3)C2)oc2c1-c1nn(Cc3ccc(Cl)cc3)cc1CC2` [Example 49, (3-benzylazetidin-1-yl){2-[(4-chlorophenyl)methyl]-8-methyl-4,5-dihydro-2H-furo[2,3-g]indazol-7-yl}methanone], the IC50 came out at 2.59 µM.

As for `Cc1c(C(=O)NCC(=O)N(C)C)oc2c1-c1nn(Cc3ccc(Cl)cc3)cc1CC2` [Example 36, 2-[(4-chlorophenyl)methyl]-N-[2-(dimethylamino)-2-oxoethyl]-8-methyl-4,5-dihydro-2H-furo[2,3-g]indazole-7-carboxamide], the IC50 was 1.19 µM.

For the compound `Cc1c(C(=O)NCc2ccccn2)oc2c1-c1nn(Cc3ccc(Cl)cc3)cc1CC2` [Example 39, 2-[(4-chlorophenyl)methyl]-8-methyl-N-[(pyridin-2-yl)methyl]-4,5-dihydro-2H-furo[2,3-g]indazole-7-carboxamide], the IC50 came out at 0.28 µM.

For `Cc1c(C(=O)NCCN2CCC2)oc2c1-c1nn(Cc3ccccc3Cl)cc1CC2` [Example 14, N-[2-(azetidin-1-yl)ethyl]-2-[(2-chlorophenyl)methyl]-8-methyl-4,5-dihydro-2H-furo[2,3-g]indazole-7-carboxamide], the IC50 turned out to be 1.15 µM.
